{"source": "patent US20070249562A1", "about": "“TREATMENT OF ATRIAL FIBRILLATION” (priority 2006, published 2007)", "key": {"[1]": {"system": "ATP induced calcium ion influx into cells (P2X purinoceptors)", "conditions": "a recent evaluation; suggested due to inhibition of P2X purinoceptors; cited from earlier work"}, "Atrial Fibrillation": {"system": "Atrial Fibrillation", "test": "Randomized, double-blind placebo-controlled study in high-risk CABG patients; atrial fibrillation by 12-lead ECG", "type": "in vivo, human", "conditions": "for Reduction of AF compared to placebo: from POD 4 to POD 90", "description": "A randomized, double-blind placebo-controlled, dose-ranging, parallel-arm multi-center study was undertaken, on high-risk patients undergoing CABG surgery with cardiopulmonary bypass. Patients were identified as “high risk” if they had two or more of the following risk factors: • Age greater than 65 years • Current smoker • History of diabetes mellitus requiring treatment other than diet • Evidence of left ventricular dysfunction or congestive heart failure • History of a previous non-disabling stroke, transient ischemic attack, or carotid endarterectomy • Urgent CABG intervention defined as the need to stay in the hospital (although the patient may be operated on within a normal scheduling routine). • History of myocardial infarction that occurred more than 48 hours but less than 6 weeks prior to CABG surgery • Prior peripheral artery surgery or angioplasty • Moderate renal dysfunction defined as […] >133 μmol/L (1.5 mg/dl), but <250 μmol/L (2.8 mg/dl) • Presence of at least one asymptomatic carotid artery stenosis (>50% ) either in one or two carotid arteries. Approximately 900 high risk pre-CABG patients in 42 different treatment centers in North America were screened and randomized to three groups of approximately 300 patients each, prior to their bypass surgery, as follows. Patients were either placed in a control group (placebo), treated with 250 mg/day of pyridoxal-5′-phosphate, (250 mg/day), or treated with 750 mg day of pyridoxal-5′-phosphate (750 mg/day). The first dose of study medication was administered at 3-10 hours prior to CABG surgery. In the event of surgery delay or rescheduling, a second pre-operative dose of pyridoxal-5′-phosphate was administered so that all patients received study medication 3-10 hours before surgery. Treatment continued for 30 days after surgery (post operative day (POD) 30). Patients received follow-up evaluations up to and including postoperative day (POD) 4, on POD 30 and on POD 90. 12-lead ECG were taken at baseline (Pre-Op), POD 2, POD 4, POD 30 and POD 90 with patients on placebo, 250 mg/day pyridoxal-5′-phosphate (P5P), and 750 mg/day pyridoxal-5′-phosphate. The data from baseline, POD 4 and POD 90 were analyzed."}, "[2]": {"conditions": "in water, alcohol, and ether; cited from earlier work"}}}
{"smiles": "Cc1ncc(COP(=O)(O)O)c(C=O)c1O", "note": "[pyridoxal-5′-phosphate, 3-hydroxy-2-methyl-5-[(phosphonooxy)methyl]-4-pyridine-carboxaldehyde]", "values": [{"measurement": "Effect on ATP induced calcium ion influx into cells", "setting": "[1]", "result": "inhibits"}, {"measurement": "Reduction of AF compared to placebo", "setting": "Atrial Fibrillation; 250 mg dose, p=0.0084", "result": 51.75, "unit": "%"}, {"measurement": "Reduction of AF compared to placebo", "setting": "Atrial Fibrillation; 750 mg dose, p=0.013", "result": 49.08, "unit": "%"}, {"measurement": "Number of patients who had AF at POD 4", "setting": "Atrial Fibrillation; 250 mg/day P5P (n = 301)", "result": 56}, {"measurement": "Percent of patients who had AF at POD 4", "setting": "Atrial Fibrillation; 250 mg/day P5P (n = 301)", "result": 18.60, "unit": "%"}, {"measurement": "Number of patients who had AF at POD 4", "setting": "Atrial Fibrillation; 750 mg/day P5P (n = 302)", "result": 63}, {"measurement": "Percent of patients who had AF at POD 4", "setting": "Atrial Fibrillation; 750 mg/day P5P (n = 302)", "result": 20.86, "unit": "%"}, {"measurement": "Number of patient who had AF at POD 90", "setting": "Atrial Fibrillation; 250 mg/day P5P (n = 301)", "result": 17}, {"measurement": "Percent of patient who had AF at POD 90", "setting": "Atrial Fibrillation; 250 mg/day P5P (n = 301)", "result": 5.65, "unit": "%"}, {"measurement": "Number of patient who had AF at POD 90", "setting": "Atrial Fibrillation; 750 mg/day P5P (n = 302)", "result": 18}, {"measurement": "Percent of patient who had AF at POD 90", "setting": "Atrial Fibrillation; 750 mg/day P5P (n = 302)", "result": 5.96, "unit": "%"}, {"measurement": "Solubility", "setting": "[2]", "result": "essentially insoluble"}]}
